# Laboratory results: patent publication US20220183937A1, “METHOD FOR IMPROVING THE PERFORMANCE OF A FRAGRANCE OR A FRAGRANCE MIXTURE” (SYMRISE AG, priority 2019, published 2022)
# Structures can show the parent of a compound that is named as a salt.
# Key:
# [1] = LogP of fragrance raw materials
# [2] = Boiling point of fragrance raw materials
# [3] = Example 1, fragrances for long lasting performance, head range 1.00 a 3.00
# [4] = Example 1, fragrances for long lasting performance, head range 1.00 a 230.0
# [5] = Example 2, fragrances for thermo boost performance, head range 0.00 a 3.00
# [6] = Example 2, fragrances for thermo boost performance, head range 230.1 a 300.0
compound,measurement,setting,value
Cc1ccc(O)cc1 [CRESOL PARA],logP,[1]; [3],2.06
same,Boiling Point,[2]; [4],190.8 °C
CC(=O)OCC(C)C [ISOBUTYL ACETATE],Boiling Point,[2]; [4],111.7 °C
CC(=O)C1CCCC(C)(C)C1 (centres unmarked) [HERBAC],Boiling Point,[2]; [4],197.4 °C
C=CCOC(=O)COCCC(C)C [ALLYL AMYL GLYCOLATE],Boiling Point,[2]; [4],217.7 °C
O=COCc1ccccc1 [BENZYL FORMATE],logP,[1],1.53
same,Boiling Point,[2]; [4],197.8 °C
CC(=O)OCCC(C)C [ISOAMYL ACETATE],logP,[1],2.26
same,Boiling Point,[2]; [4],134.9 °C
CC12CCC(C1)C(C)(C)C2O (centres unmarked) [FENCHOL],Boiling Point,[2]; [4],210 °C
CCCCCOC(C)=O [AMYL ACETATE N],Boiling Point,[2]; [4],148.4 °C
MENTHONE/ISOMENTHONE [MENTHONE/ISOMENTHONE RAC.],logP,[1]; [3],2.87
same,Boiling Point,[2]; [4],213 °C
ISOOCTANONE,logP,[1]; [3],2.15
same,Boiling Point,[2]; [4],150.5 °C
CC/C=C\CCOC(C)=O [HEXENYL ACETATE CIS-3],Boiling Point,[2]; [4],176.6 °C
CCCCCCC1CCC(=O)O1 (centres unmarked) [DECALACTONE GAMMA],logP,[1]; [5],2.57
same,Boiling Point,[2]; [6],281.7 °C
"CC/C=C\CC/C=C/C=O [NONADIENAL TRANS,CIS-2,6]",Boiling Point,[2]; [4],208.7 °C
"OCCc1ccccc1 [PHENYLETHYL ALCOHOL BA FREE, PHENYLETHYL ALCOHOL]",logP,[1],1.57
same,Boiling Point,[2]; [4],224.9 °C
COc1cc(C)ccc1O [METHYL GUAIACOL-4],Boiling Point,[2]; [6],230.4 °C
COC(Cc1ccccc1)OC,logP,[1],1.93
same,Boiling Point,[2]; [4],219.8 °C
CCCCCC1CCC(=O)O1 (centres unmarked) [ALDEHYDE C18 SO-CALLED],Boiling Point,[2]; [6],265.5 °C
CC(=O)c1ccc(C)cc1 [METHYL ACETOPHENONE PARA],logP,[1]; [3],2.22
same,Boiling Point,[2]; [4],209.7 °C
COc1ccc(C)cc1 [CRESYL METHYL ETHER PARA],Boiling Point,[2]; [4],170.8 °C
CC/C=C\CCOC(=O)OC [LEAFOVERT®],logP,[1]; [3],2.47
same,Boiling Point,[2]; [4],213 °C
CCCCC1CCCC(=O)O1 (centres unmarked) [NONALACTONE DELTA],logP,[1]; [5],2.08
same,Boiling Point,[2]; [6],267 °C
CC(=O)OC(C)c1ccccc1 (centres unmarked) [STYRALYL ACETATE],Boiling Point,[2]; [4],223.1 °C
"Cc1csc(C(C)C)n1 [ISOPROPYL METHYL THIAZOLE-2,4]",Boiling Point,[2]; [4],198 °C
O=c1ccc2ccccc2o1 [COUMARIN],Boiling Point,[2]; [6],290.7 °C
CCCCCCCC=O [ALDEHYDE C 8],logP,[1]; [3],2.78
same,Boiling Point,[2]; [4],176 °C
"COc1ccc(C(C)=O)cc1 [ACETANISOLE CRYST., ACETANISOLE]",Boiling Point,[2]; [4],229.5 °C
O=Cc1ccc2c(c1)OCO2 [HELIOTROPIN],logP,[1]; [5],1.77
same,Boiling Point,[2]; [6],257 °C
CCCCCCOC(C)=O [HEXYL ACETATE],Boiling Point,[2]; [4],170.1 °C
CCOc1cc(COC)ccc1O [METHYL DIANTILIS],logP,[1]; [5],1.61
same,Boiling Point,[2]; [6],282.4 °C
CCCCCC(=O)OCC [ETHYL CAPROATE],Boiling Point,[2]; [4],170.1 °C
O=COCCc1ccccc1 [PHENYLETHYL FORMATE],logP,[1],2.02
same,Boiling Point,[2]; [4],217.3 °C
"COC(=O)c1ccccc1N [METHYL ANTHRANILATE (=130085), METHYL ANTHRANILATE]",logP,physchem,2.26
same,Boiling Point,[2]; [6],263.6 °C
CCOc1cc(C=O)ccc1O [ETHYL VANILLIN],logP,physchem,1.55
CCCC1CCCC(=O)O1 (centres unmarked) [OCTALACTONE DELTA],Boiling Point,[2]; [6],250 °C
CCCC(C)C(=O)OCC (centres unmarked) [MANZANATE],logP,[1]; [3],2.76
same,Boiling Point,[2]; [4],157.1 °C
CCc1occc(=O)c1O [ETHYL MALTOL],logP,[1]; [5],0.3
same,Boiling Point,[2]; [6],283.4 °C
CCOC(=O)Cc1ccccc1 [ETHYL PHENYL ACETATE],logP,physchem,2.57
same,Boiling Point,[2]; [6],234.3 °C
CCOC(=O)COc1ccccc1 [ETHYL PHENOXY ACETATE],Boiling Point,[2]; [6],252.8 °C
CCCCCC(=O)OC [METHYL CAPROATE],logP,[1],2.34
same,Boiling Point,[2]; [4],148.4 °C
"COc1ccc(C=O)cc1 [ANISIC ALDEHYDE PURE, ANISIC ALDEHYDE]",Boiling Point,[2]; [4],221.6 °C
CCOC(=O)CC [ETHYL PROPIONATE],logP,[1],1.36
same,Boiling Point,[2]; [4],102.3 °C
"COc1nccnc1CC(C)C [ISOBUTYL METHOXYPYRAZINE-3,2]",Boiling Point,[2]; [6],236.5 °C
CC1(C)[C@@H]2CC[C@@]1(C)[C@H](O)C2 (racemic) [ISOBORNEOL],Boiling Point,[2]; [4],210 °C
CC(=O)OCc1ccccc1 [BENZYL ACETATE],Boiling Point,[2]; [4],215.6 °C
CCOC(=O)c1ccccc1 [ETHYL BENZOATE],logP,physchem,2.32
same,Boiling Point,[2]; [4],215.6 °C
MENTHONE L/ISOMENTHONE D,logP,[1]; [3],2.87
same,Boiling Point,[2]; [4],213 °C
"CC(=O)CCC=C(C)C [METIL-6-HEPTEN-5-ONA-2 SUPRA, METIL-6-HEPTEN-5-ONA-2]",Boiling Point,[2]; [4],164.4 °C
CCCC1CCC(=O)O1 (centres unmarked) [HEPTALACTONE GAMMA],logP,[1]; [5],1.09
same,Boiling Point,[2]; [6],230.3 °C
COc1cc(C=O)ccc1O [VANILLIN],logP,[1],1.05
same,Boiling Point,[2]; [6],274.3 °C
CC/C=C\CCOC(C)OCC (centres unmarked) [LEAF ACETAL],logP,[1]; [3],2.95
same,Boiling Point,[2]; [4],201.4 °C
"CC/C=C/CC/C=C/CO [NONADIENOL-2,6]",logP,[1]; [5],2.87
same,Boiling Point,[2]; [6],231.6 °C
CCCCCC(=O)CC [OCTANONE-3],Boiling Point,[2]; [4],163.6 °C
CC=Cc1ccc(O)c(OC)c1 [ISOEUGENOL],logP,[1],2.65
same,Boiling Point,[2]; [6],270.6 °C
"c1ccc2[nH]ccc2c1 [INDOLE FF, INDOLE]",logP,physchem,2.05
same,Boiling Point,[2]; [6],250 °C
C=CCOC(=O)COC1CCCCC1 [CYCLOGALBANAT®],Boiling Point,[2]; [6],254.9 °C
CC(=O)c1ccccc1 [ACETOPHENONE],Boiling Point,[2]; [4],189.8 °C
CCCCOC(C)=O [BUTYL ACETATE],logP,[1],1.85
same,Boiling Point,[2]; [4],125.8 °C
CC(=O)OCC=C(C)C [PRENYL ACETATE],logP,[1],2.18
same,Boiling Point,[2]; [4],149.2 °C
"COc1nccnc1C(C)C [ISOPROPYL METHOXYPYRAZINE-2,3]",Boiling Point,[2]; [4],217.8 °C
CCC/C=C/C=O [HEXENAL TRANS-2],logP,[1]; [3],1.58
same,Boiling Point,[2]; [4],139.2 °C
CCCCCC1CCCC(=O)O1 (centres unmarked) [DECALACTONE DELTA],logP,[1]; [5],2.57
same,Boiling Point,[2]; [6],283.2 °C
CC1=CC(C)C(C=O)CC1 (centres unmarked) [VERTOCITRAL],Boiling Point,[2]; [4],200.5 °C
CC1=CC(C)C(C=O)CC1 (centres unmarked) [LIGUSTRAL],Boiling Point,[2]; [4],200.5 °C
"O=Cc1ccccc1 [BE[…], BENZALDEHYDE]",logP,physchem,1.71
same,Boiling Point,[2]; [4],181.2 °C
COC(=O)Cc1ccccc1 [METHYL PHENYLACETATE],logP,physchem,2.08
same,Boiling Point,[2]; [4],215.6 °C
CC(=O)OC1CCCCC1 [CYCLOHEXYL ACETATE],logP,[1],2.64
same,Boiling Point,[2]; [4],179.4 °C
CCCC(=O)OCC [ETHYL BUTYRATE],logP,[1],1.85
same,Boiling Point,[2]; [4],125.8 °C
"COC(=O)c1ccccc1O [METHYL SALICYLATE PF, METHYL SALICYLATE]",logP,[1],2.6
same,Boiling Point,[2]; [6],252.2 °C
CCCCCC#CC(=O)OC [METHYL HEPTIN CARBONATE],logP,[1]; [3],2.6
same,Boiling Point,[2]; [4],205.3 °C
CC(=O)c1nccs1 [ACETYL THIAZOLE-2],Boiling Point,[2]; [4],209 °C
COC(=O)c1ccccc1 [METHYL BENZOATE],logP,[1],1.83
same,Boiling Point,[2]; [4],195.9 °C
CCCCC1CCC(=O)O1 (centres unmarked) [OCTALACTONE GAMMA],Boiling Point,[2]; [6],248.4 °C
O=CCc1ccccc1,logP,[1],1.54
same,Boiling Point,[2]; [4],201.5 °C
CCCCCCC(C)=O [OCTANONE-2],Boiling Point,[2]; [4],163.6 °C
COC(OC)C(C)c1ccccc1 (centres unmarked) [HYDRATROPIC ALDEHYDE DIMETH.ACET],Boiling Point,[2]; [4],227.2 °C
CC(C)(CO)Cc1ccccc1 [MUGUETALCOHOL],Boiling Point,[2]; [6],260.6 °C
CC(CC=O)c1ccccc1 (centres unmarked) [TRIFERNAL],logP,[1]; [3],2.45
same,Boiling Point,[2]; [4],228.4 °C
